Assays:
BCL6 [1] = molecular target: T1, BCL6 (Homo sapiens (Human), UniProt P41182); assay: Immunofluorescence high content imaging of BCL6 degradation in T47D cells; type: cell-based; conditions: for Dmax: T47D
Outline: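 T47D, 3 d compound exposure, 11-pt 3-fold series, top 0.1 or 1 μM final. Fix 4% PFA, Triton permeabilize, anti-BCL6 primary overnight 4 °C, Alexa-488 secondary. High-content imaging 10×, 4 fields/well, top-hat smoothing.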

BCL6 [2] = molecular target: T1, BCL6; assay: BCL6 TR-FRET assay (BCL6-Avitag-Biotin / BCoR-Cy5 peptide); type: binding; conditions: for IC50: read-out: IC50
Outline: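 TR-FRET displacement assay: biotinylated His-SUMO-BCL6-Avitag (2 nM) pre-incubated 30 min at room temperature with compound (12-point 3-fold titration), then BCoR-Cy5 peptide (100 nM) and Eu-streptavidin (2 nM) added. Buffer: 50 mM HEPES pH 7.5, 125 mM NaCl, 0.01% Triton X, glutathione or DTT, 0.03% BSA. Read after 2 h.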

| Structure (SMILES) | Dmax (BCL6 [1]) [%] | IC50 (BCL6 [2]) [nM] | IC50 (BCL6 [1]) [nM] | EC50 (BCL6 [2]) [nM] |
| --- | --- | --- | --- | --- |
| CNC(=O)COc1cc2cc(Nc3nc(N4CCC[C@H](COc5cccc6c5C(=O)N(C5CCC(=O)NC5=O)C6=O)C4)ncc3Cl)ccc2n(CCOC)c1=O (stereo partly drawn) [compound 455, 2-{[6-({5-chloro-2-[(3S)-3-({[2-(2,6-dioxopiperidin-3-yl)-1,3-dioxo-2,3-dihydro-1H-isoindol-4-yl]oxy}methyl)piperidin-1-yl]pyrimidin-4-yl}amino)-1-(2-methoxyethyl)-2-oxo-1,2-dihydroquinolin-3-yl]oxy}-N-methylacetamide] | ≥ 70 | 50 to 100 | – | – |
| CNC(=O)COc1cc2cc(Nc3nc(N4CCC[C@H](COc5cccc6c5C(=O)N(C5CCC(=O)NC5=O)C6=O)C4)ncc3Cl)ccc2n(CCC2COC2)c1=O (stereo partly drawn) [compound 504, 2-{[6-({5-chloro-2-[(3S)-3-({[2-(2,6-dioxopiperidin-3-yl)-1,3-dioxo-2,3-dihydro-1H-isoindol-4-yl]oxy}methyl)piperidin-1-yl]pyrimidin-4-yl}amino)-1-[2-(oxetan-3-yl)ethyl]-2-oxo-1,2-dihydroquinolin-3-yl]oxy}-N-methylacetamide] | ≥ 70 | 50 to 100 | – | – |
| CNC(=O)COc1cc2cc(Nc3nc(N4CCC(O[C@H]5C[C@H](N6CCC(c7ccc8c(c7)C(=O)N(C7CCC(=O)NC7=O)C8=O)CC6)C5)CC4)ncc3Cl)ccc2n(C)c1=O (some centres unmarked) [compound 536, 2-({6-[(5-chloro-2-{4-[(1r,3r)-3-{4-[2-(2,6-dioxopiperidin-3-yl)-1,3-dioxo-2,3-dihydro-1H-isoindol-5-yl]piperidin-1-yl}cyclobutoxy]piperidin-1-yl}pyrimidin-4-yl)amino]-1-methyl-2-oxo-1,2-dihydroquinolin-3-yl}oxy)-N-methylacetamide] | ≥ 70 | < 10 | – | – |

Further lines, results first:

| Dmax (BCL6 [1]) [%] | IC50 (BCL6 [2]) [nM] | IC50 (BCL6 [1]) [nM] | EC50 (BCL6 [2]) [nM] | Structure (SMILES) |
| --- | --- | --- | --- | --- |
| 50 to 70 | < 10 | – | – | CNC(=O)COc1cc2cc(Nc3nc(N4CCC(CN5CCC6(CCN(c7cccc8c7C(=O)N(C7CCC(=O)NC7=O)C8=O)CC6)C5)CC4)ncc3Cl)ccc2n(C(C)C)c1=O (centres unmarked) [compound 506, 2-{[6-({5-chloro-2-[4-({8-[2-(2,6-dioxopiperidin-3-yl)-1,3-dioxo-2,3-dihydro-1H-isoindol-4-yl]-2,8-diazaspiro[4.5]decan-2-yl}methyl)piperidin-1-yl]pyrimidin-4-yl}amino)-2-oxo-1-(propan-2-yl)-1,2-dihydroquinolin-3-yl]oxy}-N-methylacetamide] |
| < 50 | – | 10 to 50 | < 10 | CNC(=O)COc1cc2cc(Nc3nc(N4CCN(CC5CCN(c6ccc(F)c(C(=O)NC7CCC(=O)NC7=O)c6)CC5)CC4)ncc3Cl)ccc2n(C)c1=O (centres unmarked) [compound 277, 5-[4-({4-[5-chloro-4-({1-methyl-3-[(methylcarbamoyl)methoxy]-2-oxo-1,2-dihydroquinolin-6-yl}amino)pyrimidin-2-yl]piperazin-1-yl}methyl)piperidin-1-yl]-N-(2,6-dioxopiperidin-3-yl)-2-fluorobenzamide] |
| 50 to 70 | – | 10 to 50 | < 10 | CC(=O)COc1cc2cc(Nc3nc(N4CCC(CN5CC(C6CN(c7ccc8c(c7)C(=O)N(C7CCC(=O)NC7=O)C8=O)C6)C5)CC4)ncc3Cl)ccc2n(C)c1=O (centres unmarked) [compound 199, 5-(1′-((1-(5-chloro-4-((1-methyl-2-oxo-3-(2-oxopropoxy)-1,2-dihydroquinolin-6-yl)amino)pyrimidin-2-yl)piperidin-4-yl)methyl)-[3,3′-biazetidin]-1-yl)-2-(2,6-dioxopiperidin-3-yl)isoindoline-1,3-dione] |
| < 50 | – | 10 to 50 | < 10 | CNC(=O)COc1cc2cc(Nc3nc(N4CC5CC4CN5CC4CCN(c5ccc6c(c5)C(=O)N(C5CCC(=O)NC5=O)C6=O)CC4)ncc3Cl)ccc2n(C)c1=O (centres unmarked) [compound 195, 2-((6-((5-chloro-2-(5-((1-(2-(2,6-dioxopiperidin-3-yl)-1,3-dioxoisoindolin-5-yl)piperidin-4-yl)methyl)-2,5-diazabicyclo [2.2.1]heptan-2-yl)pyrimidin-4-yl)amino)-1-methyl-2-oxo-1,2-dihydroquinolin-3-yl)oxy)-N-methylacetamide] |
